One experiment concerns rP2X4. Conditions: cited from earlier work.
Another experiment deals with mP2X4. Conditions: cited from earlier work.
The subject of another experiment is human P2X4 open channel. More on the design: method as in Bidula et al. (2022). Conditions: ref Bidula et al. (2022); cited from earlier work.
Experiment [1] deals with T1, human P2X4 wild type (h4-WT) (Homo sapiens, UniProt Q99571).
T1 construct: expressed in transfected cells; host or cells: 1321N1 astrocytoma cells, stably transfected
T1 sequence (Q99571 1-388): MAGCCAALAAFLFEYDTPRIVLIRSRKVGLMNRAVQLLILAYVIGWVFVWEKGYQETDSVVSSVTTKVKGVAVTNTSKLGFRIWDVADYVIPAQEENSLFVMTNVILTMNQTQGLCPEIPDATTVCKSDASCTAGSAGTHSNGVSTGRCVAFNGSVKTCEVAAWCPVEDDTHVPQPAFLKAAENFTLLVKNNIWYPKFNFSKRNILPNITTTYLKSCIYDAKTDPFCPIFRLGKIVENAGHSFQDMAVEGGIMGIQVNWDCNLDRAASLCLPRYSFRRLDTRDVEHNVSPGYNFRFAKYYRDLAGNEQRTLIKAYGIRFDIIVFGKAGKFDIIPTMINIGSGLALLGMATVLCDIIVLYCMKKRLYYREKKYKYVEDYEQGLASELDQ
Description: ATP-induced calcium influx (Fluo-4) in 1321N1 cells stably expressing human P2X4 wild type. Conditions: 1321N1 cells, human P2X4 WT. In kind it is cell-based. The protocol:
(§1) 1321N1 astrocytoma cells were cultured (at 37°C, 5% CO2) in Dulbecco’s modified Eagle’s medium (DMEM/F-12 with Glutamax) supplemented with 10% foetal bovine serum (FBS) and 200 unit/mL of penicillin and streptomycin antibiotics (Fisher Scientific). Stably transfected clones were grown in DMEM/F-12 with Glutamax medium supplemented with G-418 (Geneticin®, Fisher Scientific), 600 μg/mL and 150 μg/mL during selection and maintenance, respectively. […] Each cell line was then tested for P2X4 receptor expression by Western blot and for functionality using the Ca^2+ influx assay.
(§2) Cells were plated the day before assay into poly-lysine-coated 96-well plates at 40–55,000 cells/mL. […] Prior to assay, buffer was replaced with fresh modified Ringer’s buffer containing probenecid but not the dye. […] A Fluoroskan Ascent FL plate reader (Fisher Scientific) equipped with a solution dispenser and an appropriate filter pair (excitation: 485 nm, emission: 538 nm) was used to record 5-s baseline followed by P2X4-mediated calcium influx measurements for 20–25 s after ATP stimulation (final concentration ranging between 0.03 and 100 μM in buffered solution, pH = 7.4). The collected responses were normalized to the first data-point recorded after ATP injection.
(§3) Data processing and data analysis were carried out using Graphpad Prism version 6 for Mac. Figures are presented as Mean ± SEM. […] When comparing data obtained from multiple independent experiments (N), each dataset was normalized to the mean value obtained for the vehicle control.

Experiment [2] deals with T2, rat P2X4 wild type (r4-WT) (Rattus norvegicus, UniProt P51577).
T2 construct: expressed in transfected cells; host or cells: 1321N1 astrocytoma cells, stably transfected
T2 sequence (P51577 1-388): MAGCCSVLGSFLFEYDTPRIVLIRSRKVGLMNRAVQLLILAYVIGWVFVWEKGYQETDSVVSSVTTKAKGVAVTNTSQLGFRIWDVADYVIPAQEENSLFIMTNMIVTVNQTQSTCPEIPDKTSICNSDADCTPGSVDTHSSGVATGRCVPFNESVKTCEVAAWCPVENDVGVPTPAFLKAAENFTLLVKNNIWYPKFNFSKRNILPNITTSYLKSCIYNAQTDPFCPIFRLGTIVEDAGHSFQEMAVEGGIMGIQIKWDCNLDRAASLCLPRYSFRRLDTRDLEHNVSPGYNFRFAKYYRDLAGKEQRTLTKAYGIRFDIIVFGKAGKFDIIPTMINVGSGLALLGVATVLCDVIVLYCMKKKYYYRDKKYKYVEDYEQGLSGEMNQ
In words: ATP-induced calcium influx (Fluo-4) in 1321N1 cells stably expressing rat P2X4 wild type. In kind it is cell-based. Conditions: 1321N1 cells, rat P2X4 WT. The protocol:
(§4) 1321N1 astrocytoma cells were cultured (at 37°C, 5% CO2) in Dulbecco’s modified Eagle’s medium (DMEM/F-12 with Glutamax) supplemented with 10% foetal bovine serum (FBS) and 200 unit/mL of penicillin and streptomycin antibiotics (Fisher Scientific). Stably transfected clones were grown in DMEM/F-12 with Glutamax medium supplemented with G-418 (Geneticin®, Fisher Scientific), 600 μg/mL and 150 μg/mL during selection and maintenance, respectively. FuGene HD Transfection Reagent (Promega) was used according to the manufacturer’s protocol for the generation of stable cell line expressing h4-WT, r4-WT, h4-I312T, and r4-T312I. Each cell line was then tested for P2X4 receptor expression by Western blot and for functionality using the Ca^2+ influx assay.
(§5) Cells were plated the day before assay into poly-lysine-coated 96-well plates at 40–55,000 cells/mL. To load cells with calcium-sensitive fluorescent dye, culture medium was replaced with modified Ringer’s buffer (140 mM NaCl, 10 mM HEPES, 10 mM Glucose, 1 mM MgCl2, 1 mM CaCl2, 2.5 mM KCl, 0.5% BSA, pH = 7.4) containing 2.6 μM FLUO4-AM (Fisher Scientific) and 250 μM probenecid (Sigma), and cells were incubated for 20–30 min. Prior to assay, buffer was replaced with fresh modified Ringer’s buffer containing probenecid but not the dye. […] A Fluoroskan Ascent FL plate reader (Fisher Scientific) equipped with a solution dispenser and an appropriate filter pair (excitation: 485 nm, emission: 538 nm) was used to record 5-s baseline followed by P2X4-mediated calcium influx measurements for 20–25 s after ATP stimulation (final concentration ranging between 0.03 and 100 μM in buffered solution, pH = 7.4). The collected responses were normalized to the first data-point recorded after ATP injection.
(§6) Data processing and data analysis were carried out using Graphpad Prism version 6 for Mac. Figures are presented as Mean ± SEM. Statistical significance of any difference observed between samples was calculated through one-way ANOVA followed by Dunnett’s multiple comparisons test with a single pooled variance (control, unless otherwise specified) or, when comparing only two sets of data, using an unpaired t-test with Welch’s correction. When comparing data obtained from multiple independent experiments (N), each dataset was normalized to the mean value obtained for the vehicle control.

The target in experiment [3] is T3, human P2X4 I312T (h4-I312T) (Homo sapiens, UniProt Q99571, I312T).
T3 construct: expressed in transfected cells; host or cells: 1321N1 astrocytoma cells, stably transfected
T3 sequence (Q99571 1-388 I312T): T1 sequence (Q99571 1-388) with I312T
In words: ATP-induced calcium influx (Fluo-4) in 1321N1 cells stably expressing human P2X4 I312T. Type of experiment: cell-based. Conditions: 1321N1 cells, human P2X4 I312T. As to the method: Plasmid encoding rat P2X4 (r4-WT) ([Royle et al., 2005]) was a kind gift from Ruth Murrell-Lagnado, whilst that encoding human P2X4 with a C-terminal (His)10 tag has been reported previously ([Young et al., 2008]).
as §1, §2, §3

In experiment [4] the target is T4, rat P2X4 T312I (r4-T312I) (Rattus norvegicus, UniProt P51577, T312I).
T4 construct: expressed in transfected cells; host or cells: 1321N1 astrocytoma cells, stably transfected
T4 sequence (P51577 1-388 T312I): T2 sequence (P51577 1-388) with T312I
Description: ATP-induced calcium influx (Fluo-4) in 1321N1 cells stably expressing rat P2X4 T312I. Type of experiment: cell-based. Conditions: 1321N1 cells, rat P2X4 T312I.
Text: Plasmid encoding rat P2X4 (r4-WT) ([Royle et al., 2005]) was a kind gift from Ruth Murrell-Lagnado, whilst that encoding human P2X4 with a C-terminal (His)10 tag has been reported previously ([Young et al., 2008]). Plasmids containing rat P2X4 T312I (r4-T312I) and human P2X4 I312T mutants (h4-I312T) were generated using the QuikChange Lightning site-directed mutagenesis kit (Agilent) according to manufacturer’s instructions. Sequencing of the constructs and of the genomic DNA from stably transfected cells confirmed correct full coding sequences.
as §4, §5, §6

For the next experiment, the system named is hP2X4. Conditions: read-out: hP2X4 IC50, cited from earlier work.
For a further experiment, the system named is injury-induced allodynia. Set-up: method as in Matsumura et al., 2016; Ushioda et al., 2020. Conditions: ref Matsumura et al., 2016; Ushioda et al., 2020; cited from earlier work.
The subject of the next experiment is P2X4. More on the design: method as in Hernandez-Olmos et al., 2012. Conditions: ref Hernandez-Olmos et al., 2012; cited from earlier work.
[5] abbreviates: approximate value for the series, ref Matsumura et al., 2016, Ushioda et al., 2020, read-out: IC50 at mouse P2X4.

The structures appear in SMILES notation. Where a chain is given by its changes, count along the chain named. Where two headings read alike, the source gives them in different places. A value given as a limit tells only on which side of the number the result lay.

Usually IC50 stands for the concentration that inhibits the measured activity by half. For the molecule `O=C1CN=C(c2cccc(Br)c2)c2oc3ccccc3c2N1` [5-BDBD], the IC50 with rP2X4 (ref Abdelrahman et al. (2017)) is 3470 nM; with rP2X4 (ref Coddou et al. (2019)), 750 nM; in the experiment on mP2X4 (ref Abdelrahman et al. (2017), read-out: mP2X4 IC50), 2040 nM. In addition, in the experiment on human P2X4 open channel, the “capability of blocking the open channel” value is “not”.
Usually EC50 stands for the concentration giving half of the maximal effect. In the case of `Nc1ncnc2c1ncn2[C@@H]1O[C@H](COP(=O)(O)OP(=O)(O)OP(=O)(O)O)[C@@H](O)[C@H]1O` [ATP], the “ATP pEC50 (± SEM)” value in experiment [1] is listed as 5.901 (± 0.0577); in experiment [2] it was 5.770 (± 0.0507); in experiment [3] it was 6.112 (± 0.028); in [4], 6.136 (± 0.0645). For the same molecule, the EC50 was found to be 1260 nM in experiment [1], 1700 nM in [2], 770 nM in experiment [3] and 730 nM in experiment [4]. Further, the “Hill coefficient (ATP concentration-response)” value in experiment [1] is listed as 1.098; in experiment [2] it was 1.441; in [3], 2.057; in experiment [4] it was 2.475.
In the case of `NS(=O)(=O)c1cc(NC(=O)Cc2ccccc2)ccc1Oc1cccc(Cl)c1` [BAY-1797, N-[4-(3-Chlorophenoxy)-3-sulfamoylphenyl]-2-phenylacetamide], the half-inhibitory concentration (IC50) with rP2X4 (ref Werner et al. (2019)) was 100 nM; in the experiment on mP2X4 (ref Werner et al. (2019), read-out: mP2X4 IC50), 200 nM.
`O=C(C1CC1)N1CCc2cc(Br)c(S(=O)(=O)Nc3ccc(Cl)c(C(F)(F)F)c3)cc21` [Indophagolin]: the half-inhibitory concentration (IC50) in the experiment with hP2X4 (ref Carnero Corrales et al. (2021)) is 140 nM.
Take `CC(C)c1ccc(NC(=S)NC(=O)C23CC4CC(CC(C4)C2)C3)c(Br)c1` [Mahmood-4n]: the IC50 with hP2X4 (ref Mahmood et al. (2022a)) is 40 nM.
Consider `O=C(NC(=S)Nc1c(Br)ccc(C(F)(F)F)c1Br)c1ccc2c(c1)OCO2` [Mahmood-9g], for which the IC50 in the experiment on hP2X4 (ref Mahmood et al. (2022b)) is 55 nM.
With `CC(C)c1ccc(NC(=S)NC(=O)c2ccc3c(c2)OCO3)c(Br)c1` [Mahmood-9o], the IC50 in the experiment on hP2X4 (ref Mahmood et al. (2022b)) is 39 nM.
Turning to `O=C1CC(=O)N(c2cccc(-c3noc(=S)[nH]3)c2)c2ccc3ccccc3c2N1` [NP-1815-PX], the IC50 in the experiment on mP2X4 (setting [5]) is around 250 nM. The “effect in in vivo rodent model of injury-induced allodynia” value (“effect in in vivo rodent model” for short) with injury-induced allodynia is “anti-allodynic effect”.
Turning to `O=C1CC(=O)N(c2ccc(NS(=O)(=O)Cc3ccccc3Cl)cc2)c2ccc3ccccc3c2N1` [NP-A], the IC50 in the experiment with mP2X4 (setting [5]) was around 250 nM. Moreover, the “effect in in vivo rodent model” value in the experiment on injury-induced allodynia was “anti-allodynic effect”.
`O=C1CC(=O)N(c2ccc(NC(=O)c3ccccc3I)cc2)c2ccc3ccccc3c2N1` [NP-B]: the IC50 was 430 nM in the experiment with hP2X4 (ref Matsumura et al., 2016, Ushioda et al., 2020) and around 250 nM in the experiment on mP2X4 (setting [5]). Besides, the “effect in in vivo rodent model” value with injury-induced allodynia is “anti-allodynic effect”.
With `Cc1ccc(S(=O)(=O)N2c3ccccc3Oc3ccccc32)cc1` [PSB-12062], the “potency as P2X4 antagonist (in words)” value in the experiment with P2X4 is given as “low micromolar range”.
Take `Cc1c(-c2cccc(-c3nnn[nH]3)c2)c2[nH]c3ccccc3c2[nH]c1=O` [Sunovion-A]: the half-maximal inhibitory concentration (IC50) in the experiment on hP2X4 (ref Newcom and Spear (2013)) is below 100 nM.

Values taken from paper PMC9947563, “Identification of the molecular determinants of antagonist potency in the allosteric binding pocket of human P2X4” (Frontiers in Pharmacology, 2023).
